Laboratory results published in patent US11053234B2 (GlaxoSmithKline Intellectual Property Development Limited, priority 2016, dated 2021).

molecular target: T1, haematopoietic prostaglandin D synthase (H-PGDS) (Homo sapiens, UniProt O60760); assay: H-PGDS RapidFire high throughput mass spectrometry assay (conversion of PGH2 to PGD2); format: biochemical; conditions: 10 nM H-PGDS, PGH2 formed in situ by COX-2 from arachidonic acid; read-out: Potency Range (mean pIC50) (converted)
T1 construct: Full length human H-PGDS cDNA (Invitrogen Ultimate ORF 10H13026) was amplified by PCR; 6-His (N); TEV protease cleavage site (N); made in house; host or cells: E. coli BL21 (DE3*), vector pET22b+
Method: H-PGDS RapidFire™ High Throughput Mass Spectrometry Assay
The H-PGDS RapidFire™ mass spectrometric assay monitors conversion of prostaglandin H2 (PGH2) to prostaglandin D2 (PGD2) by haematopoietic prostaglandin D synthase (H-PGDS). In the assay format described here, the substrate (PGH2) is formed in situ by the action of cyclooxygenase-2 on arachidonic acid. This first step is set up to be fast, and generates a burst of PGH2 at ˜10 μM. The PGH2 is then further converted to PGD2 by the H-PGDS enzyme. […] Plates are then read on the RapidFire™ high throughput solid phase extraction system (Agilent) which incorporates a solid phase extraction step coupled to a triple quadrupole mass spectrometer (AB SCIEX). Relative levels of PGD2 and PGF2α, which acts as a surrogate for substrate, are measured and a percent conversion calculated.
Expression and Purification of H-PGDS Protein
Full length human H-PGDS cDNA (Invitrogen Ultimate ORF 10H13026) was amplified by PCR with the addition of a 5′ 6-His tag and TEV protease cleavage site. The PCR product was digested with Ndel and Xhol and ligated into pET22b+ (Merck Novagen®). Expression was carried out in E. coli strain BL21 (DE3*) using auto-induction Overnight Express™ Instant TB medium (Merck Novagen®) supplemented with 1% glycerol. The culture was first grown at 37° C. and the temperature was reduced to 25° C. when OD600 reached 2.0. Cells were harvested by centrifugation after a further 18 hr. 10 g of E. coli cell pellet was suspended to a total volume of 80 mL in lysis buffer (20 mM Tris-Cl pH 7.5, 300 mM NaCl, 20 mM imidazole, 5 mM β-mercaptoethanol, 10% glycerol). 1 mg/mL protease inhibitors (Protease Inhibitor Cocktail Set III, Merck Calbiochem®) and 1 mg/mL lysozyme were added to the cell suspension. The suspension was then sonicated for 5 min (UltraSonic Processor VCX 750, Cole-Parmer Instrument Co.) with a micro probe (50% amplitude, 10 sec on/off) and then centrifuged at 100,000 g for 90 min (at 4° C.). The supernatant was loaded onto a Ni-NTA HiTrap column (5 mL, GE Healthcare, pre-equilibrated in lysis buffer). The column was washed with 10 column volumes of lysis buffer and eluted with lysis buffer containing 500 mM imidazole. The pooled protein peak fractions were concentrated using a 10 kDa centrifugal filter at 3500 g and 4° C. (Amicon Ultra-15 centrifugal filter unit with Ultracel-10 membrane from Millipore). Further purification of the concentrated protein was carried out using gel filtration chromatography on a HiLoad 26/600 Superdex 75 preparative grade column (GE Healthcare Life Sciences) using 50 mM Tris pH 7.5, 50 mM NaCl, 1 mM dithiothreitol, 1 mM MgCl2. Fractions containing the protein were pooled, concentrated as described above, and stored at −80° C.
Expression and Purification of Cyclooxygenase-2 (COX-2) Protein
The full length human COX-2 gene (accession number L15326) was amplified by PCR to generate an EcoRI-HindIII fragment containing an in-frame FLAG tag. This was subcloned into pFastBac 1 (Invitrogen). The COX2 FLAG plasmid was recombined into the baculovirus genome according to the BAC-to-BAC protocol described by Invitrogen. Transfection into Spodoptera frugiperda (Sf9) insect cells was performed using Cellfectin (Invitrogen), according to the manufacturer's protocol. […] Cells were harvested using a continuous feed centrifuge run at 2500 g at a rate of approximately 2 L/min with cooling. The resultant cell slurry was re-centrifuged in pots (2500 g, 20 min, 4° C.) and the cell paste was stored at −80° C. […] The suspension was sonicated in 500 mL batches for 8×5 seconds at 10 u amplitude with the medium tip of an MSE probe sonicator and subsequently incubated at 4° C. for 90 min with gentle stirring. The lysate was centrifuged at 12000 rpm for 45 min at 4° C. in a Sorvall SLA1500 rotor. The supernatant (1400 mL) was added to 420 mL of 20 mM Tris-Cl pH 7.4, 150 mM NaCl, 0.1 mM EDTA to reduce the concentration of n-octyl-6-D-glucopyranoside to 1% w/v.

T1 sequence (O60760 whole entry): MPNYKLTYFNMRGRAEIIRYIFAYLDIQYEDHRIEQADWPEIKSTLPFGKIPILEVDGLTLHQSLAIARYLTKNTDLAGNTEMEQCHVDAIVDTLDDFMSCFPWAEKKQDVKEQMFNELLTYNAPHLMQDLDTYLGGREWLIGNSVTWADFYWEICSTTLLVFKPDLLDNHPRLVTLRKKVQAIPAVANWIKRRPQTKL

Row | SMILES | IC50 [µM]
1 | CC1C(Oc2cccc3scnc23)CN1C(=O)N[C@H]1CC[C@H](C(C)(C)O)CC1 (mixture of isomers) [Example 240, Racemic 3-(Benzo[d]thiazol-4-yloxy)-N-((trans)-4-(2-hydroxypropan-2-yl)cyclohexyl)-2-methylazetidine-1-carboxamide] | 0.01 to 0.0794
2 | O=C(NC1CCS(=O)(=O)C1)[C@H]1C[C@H](Oc2cccc3scnc23)C1 (mixture of isomers) [Example 254, Racemic (trans)-3-(Benzo[d]thiazol-4-yloxy)-N-(1,1-dioxidotetrahydrothiophen-3-yl)cyclobutanecarboxamide] | 0.1 to 1
3 | CC(C)(O)[C@H]1CC[C@H](NC(=O)N2CC(C(F)c3cccc4cccnc34)C2)CC1 (mixture of isomers) [Example 256, Racemic 3-(Fluoro(quinolin-8-yl)methyl)-N-((trans)-4-(2-hydroxypropan-2-yl)cyclohexyl)azetidine-1-carboxamide] | 0.1 to 1
4 | O=C(NC1CCc2ccccc21)[C@H]1C[C@H](Oc2cccc(Cl)c2)C1 (mixture of isomers) [Example 286, Racemic (trans)-3-(3-Chlorophenoxy)-N-(2,3-dihydro-1H-inden-1-yl)cyclobutanecarboxamide] | 0.01 to 0.0794
5 | CC(C)(O)[C@H]1CC[C@H](NC(=O)N2CC(Oc3cc(F)ccc3OC(F)F)C2)CC1 [Example 1, 3-(2-(Difluoromethoxy)-5-fluorophenoxy)-N-((trans)-4-(2-hydroxypropan-2-yl)cyclohexyl)azetidine-1-carboxamide] | 0.1 to 1
6 | CCCCn1nnnc1NC(=O)[C@H]1C[C@H](Oc2cc(F)ccc2OC(F)F)C1 [Example 2, (trans)-N-(1-Butyl-1H-tetrazol-5-yl)-3-(2-(difluoromethoxy)-5-fluorophenoxy)cyclobutanecarboxamide] | 0.01 to 0.0794
7 | Cn1nnnc1NC(=O)[C@H]1C[C@H](Oc2cc(F)ccc2OC(F)F)C1 [Example 3, (trans)-3-(2-(Difluoromethoxy)-5-fluorophenoxy)-N-(1-methyl-1H-tetrazol-5-yl)cyclobutanecarboxamide] | 0.1 to 1
8 | O=C(NC1CN(c2ccnc(Cl)n2)C1)[C@H]1C[C@H](Oc2cc(F)ccc2OC(F)F)C1 [Example 6, (trans)-N-(1-(2-Chloropyrimidin-4-yl)azetidin-3-yl)-3-(2-(difluoromethoxy)-5-fluorophenoxy)cyclobutanecarboxamide] | 0.01 to 0.0794
9 | O=C(NC1CN(c2nccc(Cl)n2)C1)[C@H]1C[C@H](Oc2cc(F)ccc2OC(F)F)C1 [Example 7, (trans)-N-(1-(4-Chloropyrimidin-2-yl)azetidin-3-yl)-3-(2-(difluoromethoxy)-5-fluorophenoxy)cyclobutanecarboxamide] | < 0.01
10 | O=C(NC1CN(c2ncc(F)cn2)C1)[C@H]1C[C@H](Oc2cc(F)ccc2OC(F)F)C1 [Example 8, (trans)-3-(2-(Difluoromethoxy)-5-fluorophenoxy)-N-(1-(5-fluoropyrimidin-2-yl)azetidin-3-yl)cyclobutanecarboxamide] | 0.01 to 0.0794
11 | O=C(N[C@H]1CC[C@H](Nc2ncccn2)CC1)[C@H]1C[C@H](Oc2cc(F)ccc2OC(F)F)C1 [Example 10, (trans)-3-(2-(Difluoromethoxy)-5-fluorophenoxy)-N-((trans)-4-(pyrimidin-2-ylamino)cyclohexyl)cyclobutanecarboxamide] | 0.01 to 0.0794
12 | O=C(Nc1ncc(CO)s1)[C@H]1C[C@H](Oc2cc(F)ccc2OC(F)F)C1 [Example 12, (trans)-3-(2-(Difluoromethoxy)-5-fluorophenoxy)-N-(5-(hydroxymethyl)thiazol-2-yl)cyclobutanecarboxamide] | 0.01 to 0.0794
13 | O=C(Nc1nc(COC(=O)[C@H]2C[C@H](Oc3cc(F)ccc3OC(F)F)C2)cs1)[C@H]1C[C@H](Oc2cc(F)ccc2OC(F)F)C1 [Example 13, (trans)-(2-((trans)-3-(2-(Difluoromethoxy)-5-fluorophenoxy)cyclobutanecarboxamido)thiazol-4-yl)methyl 3-(2-(difluoromethoxy)-5-fluorophenoxy)cyclobutanecarboxylate] | 0.1 to 1
14 | O=C(NC1CN(CC(F)F)C1)[C@H]1C[C@H](Oc2cc(F)ccc2OC(F)F)C1 [Example 15, (trans)-N-(1-(2,2-Difluoroethyl)azetidin-3-yl)-3-(2-(difluoromethoxy)-5-fluorophenoxy)cyclobutanecarboxamide] | 0.1 to 1
15 | CC(C)(C)c1nnc(NC(=O)[C@H]2C[C@H](Oc3cc(F)ccc3OC(F)F)C2)o1 [Example 16, (trans)-N-(5-(tert-Butyl)-1,3,4-oxadiazol-2-yl)-3-(2-(difluoromethoxy)-5-fluorophenoxy)cyclobutanecarboxamide] | 0.01 to 0.0794
16 | O=C(NC1CN(c2ncccn2)C1)[C@H]1C[C@H](Oc2cc(F)ccc2OC(F)F)C1 [Example 17, (trans)-3-(2-(Difluoromethoxy)-5-fluorophenoxy)-N-(1-(pyrimidin-2-yl)azetidin-3-yl)cyclobutanecarboxamide] | 0.01 to 0.0794
17 | O=C(NC1CN(c2ccccn2)C1)[C@H]1C[C@H](Oc2cc(F)ccc2OC(F)F)C1 [Example 18, (trans)-3-(2-(Difluoromethoxy)-5-fluorophenoxy)-N-(1-(pyridin-2-yl)azetidin-3-yl)cyclobutanecarboxamide] | 0.01 to 0.0794
18 | O=C(N[C@H]1CC[C@H](N2CC(F)(F)C2)CC1)[C@H]1C[C@H](Oc2cc(F)ccc2OC(F)F)C1 [Example 19, (trans)-N-((trans)-4-(3,3-Difluoroazetidin-1-yl)cyclohexyl)-3-(2-(difluoromethoxy)-5-fluorophenoxy)cyclobutanecarboxamide] | 0.01 to 0.0794
19 | O=C(N[C@H]1CC[C@H](N[C@@H](CO)C(F)(F)F)CC1)[C@H]1C[C@H](Oc2cc(F)ccc2OC(F)F)C1 [Example 20, (trans)-3-(2-(Difluoromethoxy)-5-fluorophenoxy)-N-((trans)-4-(((S)-1,1,1-trifluoro-3-hydroxypropan-2-yl)amino)cyclohexyl)cyclobutanecarboxamide] | 0.01 to 0.0794
20 | O=C(Nc1cncnc1)[C@H]1C[C@H](Oc2cc(F)ccc2OC(F)F)C1 [Example 22, (trans)-3-(2-(Difluoromethoxy)-5-fluorophenoxy)-N-(pyrimidin-5-yl)cyclobutanecarboxamide] | 0.1 to 1
21 | C[C@]1(O)CC[C@H](NC(=O)[C@H]2C[C@H](Oc3cc(F)ccc3OC(F)F)C2)CC1 [Example 29, (trans)-3-(2-(Difluoromethoxy)-5-fluorophenoxy)-N-((trans)-4-hydroxy-4-methylcyclohexyl)cyclobutanecarboxamide] | 0.01 to 0.0794
22 | CCOC(=O)c1csc(NC(=O)[C@H]2C[C@H](Oc3cc(F)ccc3OC(F)F)C2)n1 [Example 31, ethyl 2-((trans)-3-(2-(difluoromethoxy)-5-fluorophenoxy)cyclobutanecarboxamido)thiazole-4-carboxylate] | < 0.01
23 | O=C(c1csc(NC(=O)[C@H]2C[C@H](Oc3cc(F)ccc3OC(F)F)C2)n1)C1CC1 [Example 32, (trans)-N-(4-(Cyclopropanecarbonyl)thiazol-2-yl)-3-(2-(difluoromethoxy)-5-fluorophenoxy)cyclobutanecarboxamide] | < 0.01
